Results on 7 molecules are retold here after patent publication US20040053355A1, “Modular approach to on-line synthesis, drug discovery and biochemical transformations using immobilized enzyme reactors” (priority 2000, published 2004).

By Ki is commonly meant the dissociation constant of the complex between target and ligand, obtained from inhibition or displacement. What is called Vmax is the top rate of the reaction or transport when substrate is in excess. As a reminder, the Km is the substrate concentration at which the rate is half of its maximum.

Test [1] deals with T1, phenylethanolamine N-methyltransferase (PNMT), non-immobilized (Bos taurus, UniProt P10938).
T1 sequence (P10938 1-283): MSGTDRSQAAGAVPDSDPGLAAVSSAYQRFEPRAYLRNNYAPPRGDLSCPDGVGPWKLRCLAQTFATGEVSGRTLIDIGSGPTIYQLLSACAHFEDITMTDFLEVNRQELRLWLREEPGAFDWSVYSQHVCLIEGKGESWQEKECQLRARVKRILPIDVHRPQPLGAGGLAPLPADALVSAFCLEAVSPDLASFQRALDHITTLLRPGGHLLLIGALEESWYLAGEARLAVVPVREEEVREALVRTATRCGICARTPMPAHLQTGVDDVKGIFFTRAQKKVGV
Description: Non-immobilized PNMT activity assay, batch incubation with HPLC-fluorescence analysis. It counts as biochemical, bovine. How it is done:
A mobile phase consisting of potassium phosphate buffer (50 mM) adjusted to pH 2.0 with trifluoroacetic acid was utilized to achieve the desired chromatographic separation of the products from the substrates. The solutes were quantitated using fluorescence detection with excitation at λ=266 nm and emission at λ=380 nm. A flow rate of 0.7 ml/min and ambient temperature were used throughout the study.
(§1) The activity of phenylethanolamine N-methyltransferase was assayed as follows: [final concentration] To 500 μL of enzyme solution [163 μg] was added 50 μL S-adenosyl-L-methionine [20 μM] and the solution was vortexed for 1 min. The reaction was started by addition of the 50 μL substrate [1 mM]. The reaction medium was incubated for 10 min at 37° C. in a shaking bath. The resulting solution was centrifuged at 3000×g and the supernatant were directly injected onto the HPLC under the above mentioned conditions.

The target of test [2] is T2, PNMT-IMER (immobilized phenylethanolamine N-methyltransferase) (Bos taurus, UniProt P10938).
T2 sequence (P10938 1-283): T1 sequence (P10938 1-283)
Kind of test: On-line PNMT immobilized enzyme reactor (PNMT-IMER) HPLC system. Conditions: for IC50: n = 2, read-out: IC 50 PNMT-IMER. It is filed as biochemical, bovine. The text has this:
PNMT immobilized on the Glut-P stationary phase was packed into a lcm×10 mm guard (Regis Technologies). The guard was put into a holder and the column was placed onto the chromatographic system. The PNMT-IMER was washed with phosphate buffer [0.1M, pH 8.3]. The eluent was collected in order to determine if any of the enzyme was being washed off the column. The Biorad assay was utilized to measure the amount of non-immobilized enzyme. When the column was not in use it was washed with phosphate buffer [0.1M, pH 8.3] and stored at 4° C.
The pump on system 2 is stopped. 100 μl of a substrate/cofactor mixture is loaded into the injector (i) and the value is switched to the inject position at the same time the switching valve (SV) is switched such that the substrate/product are eluted from the PNMT-IMER and concentrated onto the analytical columns of System 2 for the specified contact time. When the specific contact time elapses the SV is switched back to the original position and the pump on system 2 is started. The unreacted substrate and product formed are separated on the coupled analytical columns.
The enzymatic activity on the PNMT-IMER was determined by quantification of the amount of product formed with a given substrate. The temperature of the PNMT-IMER unless otherwise stated was kept at 37° C. with a column heater. Stock solutions of normetanephrine were prepared in water. The substrate concentrations examined ranged from 0.15-10 mM and that of the cofactor, S-adenosyl-L-methionine, ranged from 5-100 μM.
Enzymatic activity was examined carrying out injections of a series of substrate/cofactor mixtures. The mixtures were injected onto the IMER at a flow rate of 0.2 ml/min for a contact time of 20 min. The kinetic parameters were determined by drawing Lineweaver-Burke plots utilizing Microsoft Excel. Results are expressed as mean±standard error of the mean (SEM).
The effect of known inhibitors, S-adenosylhomocysteine and methyldopa on the enzymatic activity of the PNMT-IMER was also examined. The inhibition of the PNMT-IMER was carried out using injections of a series of substrate/cofactor/inhibitor mixtures.

The target of test [3] is T3, PNMT-Glut-P stationary phase (PNMT-SP) (Bos taurus, UniProt P10938).
T3 sequence (P10938 1-283): T1 sequence (P10938 1-283)
Kind of test: PNMT immobilized on Glut-P stationary phase (PNMT-SP), batch assay. It counts as biochemical, bovine. As for the experimental part: as §1
Immobilization onto the Glut-P Liquid Chromatographic stationary phase was accomplished in the following manner: (1) the stationary phase (10-100 mg) was washed three times with 0.1 M sodium phosphate buffer adjusted to pH 8.30 with 5M NaOH. The washing was carried out by adding 1 ml of buffer to the stationary phase, the suspension was mixed for 1 min, centrifuged at 3000×g for 10 min, and the supernatant decanted. (2) The enzyme solution [98 μg in 0.6 ml sodium phosphate buffer (0.1M, pH 8.30)] was added to the packing material, the mixture was mixed gently for 5 min and then placed in a rotator/stirrer bath for 18 h at ambient temperature. (3) At the end of 18 h, the suspension was centrifuged, the supernatant decanted and the packing material was washed three additional times with buffer. (4) The amount of enzyme immobilized on the packing material was determined by measuring the amount of residual enzyme in the supernatant using the BioRad Protein Assay. The difference in the absorbance reading before immobilization and the combined absorbances of the washings after immobilization determined the amount of enzyme bound on the packing material.

In test [4] the target is T3, PNMT-Glut-P stationary phase (PNMT-SP). Conditions: Table 7, *Data obtained from reference 14; cited from earlier work.
[5] abbreviates: non-immobilized PNMT, read-out: Ki PNMT.
[6] abbreviates: immobilized PNMT, read-out: Ki PNMT-SP.
[7] abbreviates: 0.2 ml/min, contact time 20 min, 37° C., n = 2.

Structures can show the parent of a compound that is named as a salt. Where two headings read alike, the source gives them in different places.

Regarding `Nc1ncnc2c1ncn2[C@@H]1O[C@H](CSCC[C@H](N)C(=O)O)[C@@H](O)[C@H]1O` [SAH, S-adenosyl-L-homocysteine], the IC50 in test [1] is 40.1 µM; in test [2], 50.5 ± 1.5 µM. The “concentration as low as which the PNMT-IMER is inhibited” value in test [2] is 5 µM.
On to `Cl.NCc1ccccc1` [Benzylamine, benzylamine hydrochloride], for which the “concentration as low as which the enzyme is inhibited” value in test [1] (non-immobilized PNMT) and in test [3] (immobilized PNMT) was 100 µM in each case. The values for the Ki in test [1] (setting [5]) and in test [3] (setting [6]) were 220 ± 110 µM and 690 ± 100 µM, respectively. Also, in test [3] (FIG. 8), the “inhibition of PNMT activity, immobilized PNMT compared to the non-immobilized PNMT” value is on record as “three times higher”.
As to `O=S(=O)(O)c1cc[c]([Hg][Cl])cc1` [p-chloromercuriphenylsulfonic acid, p-chloromercuriphenylsulfonic acid monosodium salt], the Ki was 120 ± 140 µM in test [1] and 520 ± 190 µM in test [3].
On to `COc1cc(C(O)CN)ccc1O` (racemic) [Normetanephrine, DL-normetanephrine hydrochloride], for which the Vmax in test [3] (PNMT-SP, Table 5) was found to be 0.823 µmol/mg/min. Also, in test [4], the Km is 152 µM and the Vmax is 0.823 µmol/mg/min.
For `C[S+](CC[C@H](N)C(=O)O)C[C@H]1O[C@@H](n2cnc3c(N)ncnc32)[C@H](O)[C@@H]1O` (stereo partly drawn) [SAM, S-adenosyl-L-methionine], the Km in test [1] (non-immobilized PNMT) was 14.2 µM; in test [2] (setting [7]) it was 7.31 µM; in test [3] (PNMT-SP, Table 5), 10.6 µM; in test [4], 10.6 µM. The Vmax in test [1] (non-immobilized PNMT) is 1.249 µmol/mg/min; in test [2] (setting [7]), 0.424 µmol/mg/min; in test [3] (PNMT-SP, Table 5), 0.654 µmol/mg/min; in test [4], 0.254 µmol/mg/min.
`CCN1C(=O)C=CC1=O` [N-ethylmaleimide]: the values for the Ki in test [1] (setting [5]) and in test [3] (setting [6]) were 1.04 ± 0.49 µM and 4.92 ± 0.16 µM, respectively.
As for methyl-dopa, in test [1] (non-immobilized PNMT, n = 2, read-out: IC 50 PNMT), the IC50 was 10.4 µM. Further, in test [2], the “concentration as low as which the PNMT-IMER is inhibited” value amounted to 1 µM and the IC50 was determined as 7.6 ± 0.2 µM.
